Here are results for 12 molecules from patent publication US6875737B1, “Multivalent compounds for crosslinking receptors and uses thereof” (Trustees of Tufts College, priority 1996, dated 2005).

Where two headings read alike, the source gives them in different places. Marks after values point to notes of the source that are not given here. Ends that are not written are not given here.

Data set [1] relates to T cell clone 2E5.G10.G5.E5. The experiment in a line: T cell clone proliferation, thymidine uptake. The data set is classed as cell-based. The procedure:
(§1) The proliferative effect of PLP-S-KbP on several different T cell clones that recognize PLP 139-151 were tested. T cell clones that recognize an irrelevant epitope, were used as negating controls. The protocol used is described (Kuchroo, V. K., et al., B7-1 and B7-2 Costimulatory Molecules Activate Differentially the Th1/Th2 Developmental Pathways: Application to Autoimmune Disease Therapy, Cell 80, 707-718 (1995)) and is incorporated herein by reference. Proliferation was measured by thymidine uptake. Table 1 below compares the effect PLP-S-KbP, antigenic PLP 139-151 peptide and non-antigenic PLP 103-116 peptide has on proliferation in different five PLP 139-151 specific T cell clones.

The test system of data set [2] is T cell clone 5B8.G8.E6.H12. In words: T cell clone proliferation, thymidine uptake. The data set is classed as cell-based. The procedure: as §1
Data set [3] has as its system T cell clone 7A5.F10.G11. The experiment in a line: T cell clone proliferation, thymidine uptake. The data set is classed as cell-based. The procedure: as §1
Data set [4] has as its system T cell clone SPL.C1.H2.F2. The experiment in a line: T cell clone proliferation, thymidine uptake. The data set is classed as cell-based. The procedure: as §1
For data set [5], the system named is T cell clone 4E3.B11.D9.H10.H6. The experiment in a line: T cell clone proliferation, thymidine uptake. The data set is classed as cell-based. The procedure:
as §1

The subject of data set [6] is Dipeptidyl Peptidase IV (DP IV, CD26). In words: Inhibition of DP IV (CD26) proteinase activity, Ki. The data set is classed as biochemical. Particulars: soluble DP IV (CD26). The text has this: Assays to measure CD26 (DP IV) activity will be performed on both the homobivalent compounds, e.g., Lys-boroPro coupled to another, and the heterobivalent compounds, e.g., Lys-boroPro coupled to a peptide specific for a T cell surface receptor, e.g., moth cytochrome C peptide. Methods for quantitatively measuring the interaction of small peptidomimetic inhibitors with CD26 or DP IV, as well as for the interaction of CD26 with larger ligands, e.g., the HIV Tat protein, have been developed (W. G. Gutheil and W. W. Bachovchin. Separation of L-Pro-DL-boroPro into Its Component Diastereomers and Kinetic analysis of Their Inhibition of Dipeptidyl Peptidase IV. A New Method for the Analysis of Slow, Tight-Binding Inhibition, Biochemistry 32, 8723-8731 (1993); Gutheil, W. G., and W., B. W. Kinlsq, A Matlab Program for Fitting Kinetics Data with Numerically Integrated Rate Equations and Its Application to the Analysis of Slow, Tight Binding Data, Analytical Biochemistry 223, 13-20 (1994); Gutheil, W. G., Subramanyam, M., Flentke, G. R., Sanford, D. G., Munoz, E., Huber, B. T., and Bachovchin, W. W. HIV-1 Tat Binds to DP IV (CD26): A possible Mechanism for Tat's Immunosuppressive Activity, Proc. Natl. Acad. Sci. U.S.A. 91, 6594-6598 (1994)). These methods use the chromatogenic substrate Ala-Pro-p-nitroanilide (APpNA) and fluorescent substrate Ala-Pro-7-amino-4-trifluoromethyl coumarin (AP-AFC). APpNA and AP-AFC are commercially available (e.g., Enzyme Systems Products, Dublin, Calif.).

The test system of data set [7] is H9 cells. The experiment in a line: H9 cell viability, trypan blue hemocytometry counts and flow cytometry. The data set is classed as cell-based. The text has this:
Possible explanations for the observed inhibitory activity shown in FIG. 3 were eliminated with proper negative controls.

The subject of data set [8] is H9 cells. In words: IL-2 production by H9 cells stimulated with anti-CD3 mAb OKT3 (HT2 bioassay). The data set is classed as cell-based. The procedure: To determine the effect KbP2-Adipate had on anti-CD3 mAb stimulation of H9 cells, e.g., stimulation of suppressing IL-2 production, the following protocol was used.
In quadruplicate wells, H9 cells were preincubated with KbP2-Adipate for 0, 30, 60, or 150 min. After the preincubation, the cells were seeded into a 96 well flatbottom plate pre-coated with anti-CD3 monoclonal antibody OKT3 at 1,000, 5,000, 10,000, 20,000, 50,000, or 100,000 times dilution of stock. After 24 hr, the cells were lysed by freezing at […]. IL-2 concentration in the H9 cells lysates was bioassayed using the IL-2 dependent cell line HT2, Watson, J. D. “Continuous proliferation of murine antigen specific helper T lymphocytes in culture,” 1979, Journal of Experimental Medicine, 150:1510. HT2 proliferation was measured by counting 3H-thymidine incorporation.
Similar experiments were carried out with (KbP)2-EGS and the co-stimulatory antibody OKT3; the results of these experiments are shown in FIG. 12.

The test system of data set [9] is Dipeptidyl Peptidase IV (DP IV, CD26). To be noted: cited from earlier work.
For data set [10] the following is noted: mice; cited from earlier work.
Data set [11] is described as follows: Conformational equilibrium of cyclic and open chain forms. Particulars: at equilibrium at pH 7.0. The data set is classed as physicochemical. The text has this:
G. Gutheil and W. W. Bachovchin, separation of L-Pro-DL-boroPro into Its Component Diastereomers and Kinetic Analysis of Their Inhibition of Dipeptidyl Peptidase IV. A New Method for the Analysis of Slow, Tight-Binding Inhibition, Biochemistry 32, 8723-8731 (1993)).

On to “HSLGKWLGHPDKF [PLP 139-151, peptide corresponding to residues 139-151 of myelin proteolipid protein]”, for which the “proliferation, thymidine uptake” value was 101 ^3H counts in data set [1] (dose 0.1 μM); 288 ^3H counts in data set [1] (dose 1 μM); 70 ^3H counts in data set [1] (dose 10 μM); 1,506 ^3H counts in [1] (dose 100 μM); 106 ^3H counts in [2] (dose 0.1 μM); 349 ^3H counts in data set [2] (dose 1 μM). Also, the “proliferation, thymidine uptake” value is reported as 9,176 ^3H counts in data set [2] (dose 10 μM); 41,073 ^3H counts in [2] (dose 100 μM); 117 ^3H counts in data set [3] (dose 0.1 μM); 222 ^3H counts in data set [3] (dose 1 μM); 406 ^3H counts in [3] (dose 10 μM); 2,324 ^3H counts in [3] (dose 100 μM). In addition, the “proliferation, thymidine uptake” value in data set [4] (dose 0.1 μM) was 423 ^3H counts; in data set [4] (dose 1 μM) it was 107 ^3H counts; in data set [4] (dose 10 μM) it was 400 ^3H counts; in [4] (dose 100 μM), 809 ^3H counts; in data set [5] (dose 0.1 μM), 318 ^3H counts; in data set [5] (dose 1 μM), 125 ^3H counts. Moreover, the “proliferation, thymidine uptake” value is recorded as 534 ^3H counts in data set [5] (dose 10 μM) and 1,932 ^3H counts in data set [5] (dose 100 μM).

On to `CC(N)C(=O)N1CCCC1B(O)O` [L-Ala-D,L-boroPro], for which the “DP IV inhibition” value in [6] is given as “potent inhibitors”.

Consider `N[C@@H](CCCCNC(=O)CCCCC(=O)NCCCC[C@H](N)C(=O)N1CCC[C@H]1B(O)O)C(=O)N1CCC[C@H]1B(O)O` [KbP2-Adipate, di(L-Lysine-L-boroProline)adipate], for which the cell viability result in data set [7] was “did not affect cell viability”. In addition, the “shape of dose response on IL-2 production” value in data set [8] is recorded as “decreases with increasing KbP2-Adipate concentrations”. In [8] (4.0×10^−10 M, anti-CD3 mAb stimulation of H9 cells (FIG. 4)), the “suppression of IL-2 production” value is on record as 98%. Also, the “concentration range where stimulatory effect begins” value in [8] (FIG. 5) was ~1 pM. In addition, in data set [8] (FIG. 5), the “concentration range where stimulatory effect saturates” value is listed as ~10 mM. For the same molecule, the “augmentation of IL-2 production (co-stimulatory activity)” value in [8] (higher concentrations (FIG. 5), depends on concentration and preincubation time) is recorded as “up to 4 fold”. Also, the “effect on IL-2 production” value in [8] (higher concentrations, e.g. 10^−6 M (FIG. 5)) was “potent stimulator”; in data set [8] (lower concentrations, e.g. 10^−10 M (FIG. 4)), “potent inhibitor”.

Regarding `O=C(C1CCCN1)N1CCCC1B(O)O` [L-Pro-D,L-boroPro], the “DP IV inhibition” value in data set [6] was “potent inhibitors”.

On to `OB(O)C1CCCN1` (stereo not shown) [boroPro], for which the “DP IV inhibition” value in [9] is listed as “not an effective inhibitor”.

As to `NCCCC[C@H](N)C(=O)N1CCC[C@H]1B(O)O` (single isomer, unassigned) [L,L isomer, Lys-boroPro], the “DP IV inhibition” value in [6] is listed as “inhibitory”.

With “PLP103-116: non-antigenic PLP 103-116 peptide (DYKTTICGKGLSAT)”, the “proliferation, thymidine uptake” value in [1] (dose 0.1 μM) is 307 ^3H counts; in [1] (dose 1 μM) it was 434 ^3H counts; in data set [1] (dose 10 μM), 60 ^3H counts; in [1] (dose 100 μM), 107 ^3H counts; in [2] (dose 0.1 μM), 124 ^3H counts; in data set [2] (dose 1 μM) it was 226 ^3H counts. Also, the “proliferation, thymidine uptake” value in [2] (dose 10 μM) is 74 ^3H counts; in [2] (dose 100 μM), 143 ^3H counts; in data set [3] (dose 0.1 μM) it was 556 ^3H counts; in [3] (dose 1 μM), 314 ^3H counts; in data set [3] (dose 10 μM), 117 ^3H counts; in [3] (dose 100 μM), 124 ^3H counts. Besides, the “proliferation, thymidine uptake” value was 238 ^3H counts in data set [4] (dose 0.1 μM); 123 ^3H counts in [4] (dose 1 μM); 479 ^3H counts in [4] (dose 10 μM); 150 ^3H counts in data set [4] (dose 100 μM); 178 ^3H counts in [5] (dose 0.1 μM); 559 ^3H counts in [5] (dose 1 μM). For the same molecule, the “proliferation, thymidine uptake” value is recorded as 224 ^3H counts in data set [5] (dose 10 μM) and 274 ^3H counts in data set [5] (dose 100 μM).

On to “HSLGKWLGHPDKFAAAAAA-εKbP (not fully specified (C-terminus); printed as HSLGKWLGHPDKFAAAAAA-εKbP; also: C-terminus joined to epsilon-amino of Lys, which carries boroPro) [PLP-S-KbP, Lys-boroPro linked by its ε-amino group via six alanines to the C terminus of PLP 139-151]”, for which the “proliferation, thymidine uptake” value is 175 ^3H counts in data set [1] (dose 0.1 μM); 7,738 ^3H counts in data set [1] (dose 1 μM); 26,410 ^3H counts in data set [1] (dose 10 μM); 36,686 ^3H counts in data set [1] (dose 100 μM); 22,022 ^3H counts in [2] (dose 1 μM); 53,628 ^3H counts in data set [2] (dose 10 μM). Besides, the “proliferation, thymidine uptake” value is 34,716* ^3H counts in data set [2] (dose 100 μM); 187 ^3H counts in data set [3] (dose 0.1 μM); 8,202 ^3H counts in [3] (dose 1 μM); 35,521 ^3H counts in data set [3] (dose 10 μM); 43,999 ^3H counts in [3] (dose 100 μM); 681 ^3H counts in data set [4] (dose 0.1 μM). In addition, the “proliferation, thymidine uptake” value is reported as 2,527 ^3H counts in data set [4] (dose 1 μM); 17,516 ^3H counts in data set [4] (dose 10 μM); 31,635 ^3H counts in data set [4] (dose 100 μM); 3,688 ^3H counts in data set [5] (dose 0.1 μM); 8,580 ^3H counts in data set [5] (dose 1 μM); 15,753 ^3H counts in data set [5] (dose 10 μM). Further, the “proliferation, thymidine uptake” value in data set [5] (dose 100 μM) is recorded as 17,608 ^3H counts.

As for `NCCCC[C@H](N)C(=O)N1CCC[C@H]1B(O)O` (single isomer, unassigned) [L,D isomer, Lys-boroPro], the “DP IV inhibition” value in data set [6] is recorded as “non inhibitory”.

Regarding `C[C@H](N)C(=O)N1CCC[C@H]1B(O)O` [Ala-boroPro], in data set [10], the “immune response in vivo (antibody production after antigen challenge)” value is recorded as “inhibited an immune response in vivo in mice”.

For the molecule `O=C(C1CCCN1)N1CCCC1B(O)O` (stereo not shown) [Pro-boroPro], the “immune response in vivo (antibody production after antigen challenge)” value in data set [10] is “inhibited an immune response in vivo in mice”. Also, the “fraction existing as open chain, inhibitory species” value in [11] is given as “less than 1%”.

For the molecule `CC(C)C(N)C(=O)N1CCCC1B(O)O` (stereo not shown) [Val-boroPro], the “fraction existing as open chain, inhibitory species” value in data set [11] is listed as “less than 0.1%”.
